System: patients with acute lymphoblastic leukemia
Test: Adverse events (CTCAE version 4.0), Phase II study NCI-9775 of sapanisertib monotherapy
Assay type: in vivo
Conditions: treatment-related; 15 evaluable
Description: Responders could continue on the same dose or proceed to allogeneic hematopoietic cell transplant if available. Non‐responders (but tolerating drug) could increase their dose to 4 mg orally for 21 days every 28 days (dose level + 1) starting in Cycle 3 and 4 mg orally continuously (dose level + 2) starting in Cycle 5 (if they tolerated dose level + 1). Dose reduction was recommended for toxicity (dose level − 1: 2 mg daily for 21 days every 28 days; dose level − 2: 2 mg daily for 5 days/week for 3 weeks every 4 weeks). […] Intrathecal chemotherapy was allowed per institutional standard policies. In‐home blood glucose monitoring was performed daily to monitor blood sugar (a glucometer was given to every patient on the study). Discontinuation of therapy was recommended for disease progression, severe toxicity, lack of response, proceeding to hematopoietic cell transplant, or prolonged delay of the subsequent cycle (>1 month delay for therapy‐related toxicity or >2 months delay for unrelated toxicity).
The primary endpoint was the proportion of successes, which was estimated by the number of successes divided by the total number of evaluable patients. Secondary endpoints of duration of response (CR or CRi) and overall survival (OS) were evaluated using Kaplan–Meier techniques; the frequency of proceeding to allogeneic stem cell transplant after achieving response and adverse events (AEs), as evaluated using reported the NCI Common Terminology Criteria for Adverse Events (CTCAE) version 4.0, were presented using descriptive statistics.

CC(C)n1nc(-c2ccc3oc(N)nc3c2)c2c(N)ncnc21 [sapanisertib]
Aspartate aminotransferase increased grade 2: 0 (0) N (%)
Aspartate aminotransferase increased grade 3: 0 (0) N (%)
Aspartate aminotransferase increased grade 4: 0 (0) N (%)
Aspartate aminotransferase increased grade 5: 0 (0) N (%)
Bloating grade 1: 1 (7) N (%)
Bloating grade 2: 0 (0) N (%)
Bloating grade 3: 0 (0) N (%)
Bloating grade 4: 0 (0) N (%)
Bloating grade 5: 0 (0) N (%)
Blood bilirubin increased grade 1: 1 (7) N (%)
Blood bilirubin increased grade 2: 0 (0) N (%)
Blood bilirubin increased grade 3: 1 (7) N (%)
Blood bilirubin increased grade 4: 0 (0) N (%)
Blood bilirubin increased grade 5: 0 (0) N (%)
Confusion grade 1: 0 (0) N (%)
Confusion grade 2: 0 (0) N (%)
Confusion grade 3: 1 (7) N (%)
Confusion grade 4: 0 (0) N (%)
Confusion grade 5: 0 (0) N (%)
Constipation grade 1: 1 (7) N (%)
Constipation grade 2: 0 (0) N (%)
Constipation grade 3: 0 (0) N (%)
Constipation grade 4: 0 (0) N (%)
Constipation grade 5: 0 (0) N (%)
Cough grade 1: 1 (7) N (%)
Cough grade 2: 0 (0) N (%)
Cough grade 3: 0 (0) N (%)
Cough grade 4: 0 (0) N (%)
Cough grade 5: 0 (0) N (%)
Delirium grade 1: 0 (0) N (%)
Delirium grade 2: 0 (0) N (%)
Delirium grade 3: 1 (7) N (%)
Delirium grade 4: 0 (0) N (%)
Delirium grade 5: 0 (0) N (%)
Diarrhea grade 1: 1 (7) N (%)
Diarrhea grade 2: 0 (0) N (%)
Diarrhea grade 3: 0 (0) N (%)
Diarrhea grade 4: 0 (0) N (%)
Diarrhea grade 5: 0 (0) N (%)
Dysgeusia grade 1: 1 (7) N (%)
Dysgeusia grade 2: 0 (0) N (%)
Dysgeusia grade 3: 0 (0) N (%)
Dysgeusia grade 4: 0 (0) N (%)
Dysgeusia grade 5: 0 (0) N (%)
Edema limbs grade 1: 1 (7) N (%)
Edema limbs grade 2: 0 (0) N (%)
Edema limbs grade 3: 0 (0) N (%)
Edema limbs grade 4: 0 (0) N (%)
Edema limbs grade 5: 0 (0) N (%)
Fall grade 1: 0 (0) N (%)
Fall grade 2: 1 (7) N (%)
Fall grade 3: 0 (0) N (%)
Fall grade 4: 0 (0) N (%)
Fall grade 5: 0 (0) N (%)
Fatigue grade 1: 1 (7) N (%)
Fatigue grade 2: 0 (0) N (%)
Fatigue grade 3: 1 (7) N (%)
Fatigue grade 4: 0 (0) N (%)
Fatigue grade 5: 0 (0) N (%)
Febrile neutropenia grade 1: 0 (0) N (%)
Febrile neutropenia grade 2: 0 (0) N (%)
Febrile neutropenia grade 3: 1 (7) N (%)
Febrile neutropenia grade 4: 0 (0) N (%)
Febrile neutropenia grade 5: 0 (0) N (%)
Fibrinogen decreased grade 1: 0 (0) N (%)
Fibrinogen decreased grade 2: 0 (0) N (%)
Fibrinogen decreased grade 3: 1 (7) N (%)
Fibrinogen decreased grade 4: 0 (0) N (%)
Fibrinogen decreased grade 5: 0 (0) N (%)
Hyperglycemia grade 1: 0 (0) N (%)
Hyperglycemia grade 2: 0 (0) N (%)
Hyperglycemia grade 3: 2 (13) N (%)
Hyperglycemia grade 4: 0 (0) N (%)
Hyperglycemia grade 5: 0 (0) N (%)
Hypertriglyceridemia grade 1: 1 (7) N (%)
Hypertriglyceridemia grade 2: 0 (0) N (%)
Hypertriglyceridemia grade 3: 0 (0) N (%)
Hypertriglyceridemia grade 4: 0 (0) N (%)
Hypertriglyceridemia grade 5: 0 (0) N (%)
Leukocytosis grade 1: 0 (0) N (%)
Leukocytosis grade 2: 0 (0) N (%)
Leukocytosis grade 3: 1 (7) N (%)
Leukocytosis grade 4: 0 (0) N (%)
Leukocytosis grade 5: 0 (0) N (%)
Lymphocyte count decreased grade 1: 0 (0) N (%)
Lymphocyte count decreased grade 2: 0 (0) N (%)
Lymphocyte count decreased grade 3: 2 (13) N (%)
Lymphocyte count decreased grade 4: 0 (0) N (%)
Lymphocyte count decreased grade 5: 0 (0) N (%)
Mucositis oral grade 1: 0 (0) N (%)
Mucositis oral grade 2: 0 (0) N (%)
Mucositis oral grade 3: 3 (20) N (%)
Mucositis oral grade 4: 0 (0) N (%)
Mucositis oral grade 5: 0 (0) N (%)
Neoplasms grade 1: 0 (0) N (%)
Neoplasms grade 2: 0 (0) N (%)
Neoplasms grade 3: 1 (7) N (%)
Neoplasms grade 4: 0 (0) N (%)
Neoplasms grade 5: 0 (0) N (%)
Neutrophil count decreased grade 1: 0 (0) N (%)
Neutrophil count decreased grade 2: 0 (0) N (%)
Neutrophil count decreased grade 3: 0 (0) N (%)
Neutrophil count decreased grade 4: 1 (7) N (%)
Neutrophil count decreased grade 5: 0 (0) N (%)
Oral pain grade 1: 1 (7) N (%)
Oral pain grade 2: 0 (0) N (%)
Oral pain grade 3: 0 (0) N (%)
Oral pain grade 4: 0 (0) N (%)
Oral pain grade 5: 0 (0) N (%)
Paresthesia grade 1: 1 (7) N (%)
Paresthesia grade 2: 0 (0) N (%)
Paresthesia grade 3: 0 (0) N (%)
Paresthesia grade 4: 0 (0) N (%)
Paresthesia grade 5: 0 (0) N (%)
Pharyngolaryngeal pain grade 1: 0 (0) N (%)
Pharyngolaryngeal pain grade 2: 1 (7) N (%)
Pharyngolaryngeal pain grade 3: 0 (0) N (%)
Pharyngolaryngeal pain grade 4: 0 (0) N (%)
Pharyngolaryngeal pain grade 5: 0 (0) N (%)
Platelet count decreased grade 1: 0 (0) N (%)
Platelet count decreased grade 2: 0 (0) N (%)
Platelet count decreased grade 3: 1 (7) N (%)
Platelet count decreased grade 4: 3 (20) N (%)
Platelet count decreased grade 5: 0 (0) N (%)
Pneumonitis grade 1: 0 (0) N (%)
Pneumonitis grade 2: 0 (0) N (%)
Pneumonitis grade 3: 1 (7) N (%)
Pneumonitis grade 4: 0 (0) N (%)
Pneumonitis grade 5: 0 (0) N (%)
Pruritus grade 1: 1 (7) N (%)
Pruritus grade 2: 0 (0) N (%)
Pruritus grade 3: 0 (0) N (%)
Pruritus grade 4: 0 (0) N (%)
Pruritus grade 5: 0 (0) N (%)
Resp, thoracic, mediastinal grade 1: 0 (0) N (%)
Resp, thoracic, mediastinal grade 2: 0 (0) N (%)
Resp, thoracic, mediastinal grade 3: 0 (0) N (%)
Resp, thoracic, mediastinal grade 4: 1 (7) N (%)
Resp, thoracic, mediastinal grade 5: 0 (0) N (%)
Vaginal inflammation grade 1: 0 (0) N (%)
Vaginal inflammation grade 2: 1 (7) N (%)
Vaginal inflammation grade 3: 0 (0) N (%)
Vaginal inflammation grade 4: 0 (0) N (%)
Vaginal inflammation grade 5: 0 (0) N (%)
Vomiting grade 1: 1 (7) N (%)
Vomiting grade 2: 0 (0) N (%)
Vomiting grade 3: 0 (0) N (%)
Vomiting grade 4: 0 (0) N (%)
Vomiting grade 5: 0 (0) N (%)
Wheezing grade 1: 0 (0) N (%)
Wheezing grade 2: 1 (7) N (%)
Wheezing grade 3: 0 (0) N (%)
Wheezing grade 4: 0 (0) N (%)
Wheezing grade 5: 0 (0) N (%)
White blood cell decreased grade 1: 0 (0) N (%)
White blood cell decreased grade 2: 0 (0) N (%)
White blood cell decreased grade 3: 0 (0) N (%)
White blood cell decreased grade 4: 2 (13) N (%)
White blood cell decreased grade 5: 0 (0) N (%)

— publication PMC10726920 (Cancer Medicine, 2023)
